From patent US8877707B2, “Inhibitors of HCV NS5A” (Presidio Pharmaceuticals, Inc., priority 2010, dated 2014)

Each molecule was assayed on HCV genotype 1b replicon in Huh 7 cells (assay: HCV replicon assay (1b_Huh-Luc/Neo-ET cell line, luciferase readout)). Details: Hepatitis C virus, Huh-7, 72 h, read-out: Inhibition of HCV genotype 1b.
Format: cell-based
Procedure: Biological activity of the compounds of the invention was determined using an HCV replicon assay. The 1b_Huh-Luc/Neo-ET cell line persistently expressing a bicistronic genotype 1b replicon in Huh 7 cells was obtained from ReBLikon GMBH. This cell line was used to test compound inhibition using luciferase enzyme activity readout as a measurement of compound inhibition of replicon levels.
On Day 1 (the day after plating), each compound is added in triplicate to the cells. Plates incubated for 72 h prior to running the luciferase assay. Enzyme activity was measured using a Bright-Glo Kit (cat. number E2620) manufactured by Promega Corporation. The following equation was used to generate a percent control value for each compound. % Control=(Average Compound Value/Average Control)*100
The EC50 value was determined using GraphPad Prism and the following equation: Y=Bottom+(Top−Bottom)/(1+10^((Log IC50−X)*HillSlope))
EC50 values of compounds are repeated several times in the replicon assay.

Compound	EC50
CNC(=O)N[C@@H](C(=O)N1CCC[C@H]1c1nc(-c2ccc3cc(-c4ccc(-c5cnc([C@@H]6CCCN6C(=O)[C@@H](NC(=O)OC)C(C)C)[nH]5)cc4)ccc3c2)c[nH]1)c1ccccc1 [14s]	< 1 nM

Same assay, conditions: Hepatitis C virus; Table 1; genotype 1b replicon, Huh 7 cells, 72 h, luciferase; read-out: Inhibition of HCV genotype 1b

Compound	EC50
COC(=O)N[C@H](C(=O)N1CCC[C@H]1c1ncc(-c2ccc3nc(-c4ccc5c(c4)CCc4nc([C@@H]6CCCN6C(=O)[C@@H](NC(=O)OC)C(C)C)[nH]c4-5)ccc3c2)[nH]1)C(C)C [292-1]	< 1 nM
COC(=O)N[C@H](C(=O)N1CCC[C@H]1c1nc2c([nH]1)-c1ccc(-c3ccc4cc(-c5cnc([C@@H]6CCCN6C(=O)[C@@H](NC(=O)OC)C6CCOCC6)[nH]5)ccc4n3)cc1CC2)C(C)C [293-1]	< 1 nM
COC(=O)N[C@H](C(=O)N1CCC[C@H]1c1nc2c([nH]1)-c1ccc(-c3ccc4cc(-c5cnc([C@@H]6CCCN6C(=O)[C@H](NC(=O)OC)c6ccccc6)[nH]5)ccc4n3)cc1CC2)C(C)C [294-1]	< 1 nM
COC(=O)N[C@H](C(=O)N1CCC[C@H]1c1nc2c([nH]1)-c1ccc(-c3ccc4cc(-c5cnc([C@@H]6CCCN6C(=O)[C@H](NC(=O)OC6CCOCC6)c6ccccc6)[nH]5)ccc4n3)cc1CC2)C(C)C [295-1]	< 1 nM
COC(=O)N[C@H](C(=O)N1CCC[C@H]1c1nc(-c2ccc3cc(-c4ccc(-c5cnc([C@@H]6CCCN6C(=O)[C@@H](NC(=O)OC)C(C)C)[nH]5)cc4)ccc3c2)c[nH]1)C(C)C [compound 1]	< 1 nM
COC(=O)N[C@@H](C(=O)N1CCC[C@H]1c1nc(-c2ccc3cc(-c4ccc(-c5cnc([C@@H]6CCCN6C(=O)[C@H](NC(=O)OC)C(C)C)[nH]5)cc4)ccc3c2)c[nH]1)C(C)C [compound 2]	1 to 9.9 nM
COC(=O)N[C@H](C(=O)N1CCC[C@H]1c1nc(-c2ccc3cc(-c4ccc(-c5cnc([C@@H]6CCCN6C(=O)[C@@H](NC(=O)OC)[C@@H](C)OC)[nH]5)cc4)ccc3c2)c[nH]1)[C@@H](C)OC [compound 3]	< 1 nM
COC(=O)N[C@H](C(=O)N1CCC[C@H]1c1nc(-c2ccc3cc(-c4ccc(-c5cnc([C@@H]6CCCN6C(=O)[C@@H](NC(=O)OC)[C@@H](C)O)[nH]5)cc4)ccc3c2)c[nH]1)[C@@H](C)O [compound 4]	< 1 nM
COC(=O)N[C@H](C(=O)N1CCC[C@H]1c1nc(-c2ccc3cc(-c4ccc(-c5cnc([C@@H]6CCCN6C(=O)[C@@H](c6ccccc6)N(C)C)[nH]5)cc4)ccc3c2)c[nH]1)C(C)C [compound 5]	< 1 nM
COC(=O)N[C@H](C(=O)N1CCC[C@H]1c1ncc(-c2ccc(-c3ccc4cc(-c5c[nH]c([C@@H]6CCCN6C(=O)[C@@H](c6ccccc6)N(C)C)n5)ccc4c3)cc2)[nH]1)C(C)C [compound 6]	< 1 nM
COC(=O)N[C@H](C(=O)N1CCC[C@H]1c1ncc(-c2ccc(-c3ccc4cc(-c5c[nH]c([C@@H]6CCCN6C(=O)[C@H](NC(=O)OC)c6ccccc6)n5)ccc4c3)cc2)[nH]1)C(C)C [compound 7]	< 1 nM
COC(=O)N[C@H](C(=O)N1CCC[C@H]1c1nc(-c2ccc3cc(-c4ccc(-c5cnc([C@@H]6CCCN6C(=O)[C@H](NC(=O)OC)c6ccccc6)[nH]5)cc4)ccc3c2)c[nH]1)C(C)C [compound 8]	< 1 nM
COC(=O)N[C@H](C(=O)N1CCC[C@H]1c1ncc(-c2ccc(-c3ccc4cc(-c5c[nH]c([C@@H]6CCCN6C(=O)[C@@H](c6ccccc6)N6CCCC6)n5)ccc4c3)cc2)[nH]1)C(C)C [compound 9]	< 1 nM
COC(=O)N[C@H](C(=O)N1CCC[C@H]1c1nc(-c2ccc3cc(-c4ccc(-c5cnc([C@@H]6CCCN6C(=O)[C@@H](c6ccccc6)N6CCCC6)[nH]5)cc4)ccc3c2)c[nH]1)C(C)C [compound 10]	< 1 nM
COC(=O)N[C@H](C(=O)N1CCC[C@H]1c1nc(-c2ccc3nc(-c4ccc(-c5cnc([C@@H]6CCCN6C(=O)[C@@H](NC(=O)OC)C(C)C)[nH]5)cc4)cnc3c2)c[nH]1)C(C)C [compound 11]	< 1 nM
COC(=O)N[C@H](C(=O)N1CCC[C@H]1c1ncc(-c2ccc(-c3cnc4ccc(-c5cnc([C@@H]6CCCN6C(=O)[C@@H](NC(=O)OC)C(C)C)[nH]5)cc4n3)cc2)[nH]1)C(C)C [compound 12]	1 to 9.9 nM
COC(=O)N[C@H](C(=O)N1CCC[C@H]1c1nc(-c2ccc3cc(-c4ccc(-c5cnc([C@@H]6CCCN6C(=O)[C@@H](NC(=O)OC)C(C)C)[nH]5)cn4)ccc3c2)c[nH]1)C(C)C [compound 13]	< 1 nM
COC(=O)N[C@H](C(=O)N1CCC[C@H]1c1ncc(-c2ccc(-c3ccc4cc(-c5c[nH]c([C@@H]6CCCN6C(=O)[C@H](NC(=O)N6CC[C@H](O)C6)c6ccccc6)n5)ccc4c3)cc2)[nH]1)C(C)C [compound 15]	< 1 nM
COC(=O)N[C@H](C(=O)N1CCC[C@H]1c1nc(-c2ccc3cc(-c4ccc(-c5cnc([C@@H]6CCCN6C(=O)[C@H](NC(=O)N6CC[C@H](O)C6)c6ccccc6)[nH]5)cc4)ccc3c2)c[nH]1)C(C)C [compound 16]	< 1 nM
COC(=O)N[C@H](C(=O)N1CCC[C@H]1c1nc(-c2ccc3nc(-c4ccc(-c5cnc([C@@H]6CCCN6C(=O)[C@@H](NC(=O)OC)C(C)C)[nH]5)cc4)ncc3c2)c[nH]1)C(C)C [compound 17]	< 1 nM
CNC(=O)N[C@@H](C(=O)N1CCC[C@H]1c1ncc(-c2ccc(-c3ccc4cc(-c5c[nH]c([C@@H]6CCCN6C(=O)[C@@H](NC(=O)OC)C(C)C)n5)ccc4c3)cc2)[nH]1)c1ccccc1 [compound 18]	< 1 nM
COC(=O)N[C@H](C(=O)N1CCC[C@H]1c1nc(-c2cnc3cc(-c4ccc(-c5cnc([C@@H]6CCCN6C(=O)[C@@H](NC(=O)OC)C(C)C)[nH]5)cc4)ccc3c2)c[nH]1)C(C)C [compound 19]	< 1 nM
COC(=O)N[C@H](C(=O)N1CCC[C@H]1c1ncc(-c2ccc(-c3cccc4c(-c5cnc([C@@H]6CCCN6C(=O)[C@@H](NC(=O)OC)C(C)C)[nH]5)cccc34)cc2)[nH]1)C(C)C [compound 20]	< 1 nM
COC(=O)N[C@H](C(=O)N1CCC[C@H]1c1nc(-c2ccc3cc(-c4ccc(-c5cnc([C@@H]6CCCN6C(=O)[C@@H](NC(=O)OC)C(C)C)[nH]5)cc4)cnc3c2)c[nH]1)C(C)C [compound 21]	< 1 nM
COC(=O)N[C@H](C(=O)N1CCC[C@H]1c1nc(-c2ccc3cc(-c4ccc(-c5cnc([C@@H]6CCCN6C(=O)[C@@H](NC(=O)OC)C(C)C)[nH]5)cc4)ncc3c2)c[nH]1)C(C)C [compound 22]	< 1 nM

Same assay, conditions: Hepatitis C virus; Table 2; genotype 1b replicon, Huh 7 cells, 72 h, luciferase; read-out: Inhibition of HCV genotype 1b

Compound	EC50
COC[C@H](NC(=O)OC)C(=O)N1CCOC[C@H]1c1ncc(-c2ccc3cc(-c4ccc(-c5cnc([C@@H]6CCCN6C(=O)[C@H](NC(=O)OC)c6ccccc6)[nH]5)cc4)ccc3c2)[nH]1 [325-1]	< 1 nM
COC(=O)N[C@H](C(=O)N1CCC[C@H]1c1ncc(-c2ccc3cc(-c4ccc(-c5cnc([C@@H]6CCCN6C(=O)[C@H](NC(=O)OC)c6ccsc6)[nH]5)cc4)ccc3c2)[nH]1)[C@@H](C)OC [330-1]	< 1 nM
COC(=O)N[C@H](C(=O)N1CCC[C@H]1c1ncc(-c2ccc3cc(-c4ccc(-c5cnc([C@@H]6CCCN6C(=O)[C@H](NC(=O)OC)c6cccs6)[nH]5)cc4)ccc3c2)[nH]1)[C@@H](C)OC [331-1]	< 1 nM
COC[C@H](NC(=O)OC)C(=O)N1CCC[C@H]1c1ncc(-c2ccc3cc(-c4ccc5nc([C@@H]6CCCN6C(=O)[C@H](COC)NC(=O)OC)[nH]c5c4)ccc3c2)[nH]1 [345-1]	< 1 nM
COC[C@H](NC(=O)OC)C(=O)N1CCC[C@H]1c1ncc(-c2ccc3cc(-c4ccc5nc([C@@H]6COCCN6C(=O)[C@H](COC)NC(=O)OC)[nH]c5c4)ccc3c2)[nH]1 [358-1]	< 1 nM
